Results as given in US20200405687A1, “METHODS FOR THE TREATMENT OF INFECTION” (Corbus Pharmaceuticals, Inc., priority 2016, published 2020).

Test system: UV-killed Escherichia coli
Experiment: Skin challenge (blister) model, intradermal UV-killed E. coli in healthy volunteers (Example 3)
Type: in vivo, humans
Protocol: The ability of administration of a pharmaceutical composition including ajulemic acid to treat infection was assayed in a skin challenge model. A self-resolving acute inflammatory response was triggered by the intradermal injection of UV-killed Escherichia coli into the forearm of healthy volunteers. […] This study was performed to determine whether ajulemic acid promotes the resolution of infection at the site of inflammation, thereby treating that infection.
Cells and exudates were harvested at several time points following injection of UV-killed E. coli by applying negative pressure over the inflamed site.
The study included four experimental groups (n=10 in each group): • 1) Placebo, twice daily for four days • 2) Ajulemic acid, 5 mg, twice daily for four days • 3) Ajulemic acid, 20 mg, twice daily for four days • 4) Prednisone, 15 mg daily for four days
The volunteer (healthy males, 18-50 years) were randomly allocated to one of the above three groups and orally administered the test drug for four consecutive days. On the morning of the fourth day (after intake of the first dose), experimental acute inflammation was elicited by infection with UV-killed E. coli. The drug and the placebo were provided as capsules.
UV killed E. coli (Strain: NCTC 10418, Source: Public Health England, UK) were prepared as follows. E. coli described were grown overnight in Luria Broth (Sigma) at 37° C. The next morning, the bacteria were washed twice in sterile PBS (2500 g, 20 min, 4° C.) and resuspended in a sterile petri dish.
Bacteria were then killed by exposure to an ultraviolet light (UV) source (302 nm, ChemiDoc, trans-UV mode; Bio-Rad laboratories) for 60 min and then washed again in sterile saline. Bacterial counts were determined by optical density (OD600=0.365 equates to […] E. coli/ml). UVKEc were resuspended in a volume of sterile saline to obtain the count of 1.5×10^8/ml, aliquoted into sterile eppendorf tubes and then frozen at −80° C. until used for injections.
After disinfecting and shaving the skin, 1.5×10^7 UVKEc in 100 μl saline were injected intradermally into a marked site on the volar aspect of each forearm. To characterize the treatment of infection using ajulemic acid, each forearm was allotted to one of the predefined time-points namely 4, 8, 14, 24, 48 or 72 hours (h). Thus the effects of intradermal injection of UVKEc were allowed to progress for the duration of the time-point after which a suction blister was raised over the marked injection site, and then aspirated immediately. In summary, volunteer had two injection sites, one on each forearm, and contributed to two time points. On a separate group of volunteers, blister was raised on the naïve skin and treated as the baseline time point. Study time-points were discussed with volunteers before consenting.
Laser Doppler Imager (moor LDI-HIR, Moor Instruments Ltd, Axminster, Devon, UK) was used to quantify the blood flow at the site of infection. At predefined time points after injection of UVKEc, the forearm was placed under the scanner at a fixed distance to scan a fixed area. The scanner emits a laser beam, a portion of which is scattered by red blood cells present at the inflamed area. The scattering causes a change in frequency of the reflected light which is then detected by a photo detector. The velocity and concentration of red blood cells at the site directly affect the Doppler frequency shifts and account for the signal strength measured in arbitrary perfusion units. […] The total blood flow (measured in perfusion units) was calculated as product of number of valid pixels above background signal (Cut-off=300 perfusion units) and the mean blood flow signal over the valid pixels 11, 12.
To obtain the exudate from the site of infection, a 10 mm diameter suction blister was induced directly over the site of injection. […]

Question: C[C@]12C=CC(=O)C=C1CC[C@@H]1[C@@H]2C(=O)C[C@@]2(C)[C@H]1CC[C@]2(O)C(=O)CO [prednisone, reference compound] was tested. Which “rise in C-reactive protein (CRP) levels in serum” value (after UVKEc triggered acute inflammation, multiple time points) did it give?
Answer: does appear to inhibit the rise in CRP

Question: And the “infiltration of neutrophils at the site of inflammation (blister exudate)” value (ajulemic acid 5 mg or 20 mg BID, prednisone 15 mg daily, 4 h and 10 h, relative to placebo)?
Answer: decrease in the infiltration of neutrophils

Question: What about the “levels of endotoxin at the site of injection” value (ajulemic acid 5 mg or 20 mg BID, prednisone 15 mg daily, 4 hr and 10 hr, limulus amoebocyte lysate test) of the same compound?
Answer: appears to increase the levels of endotoxin

Question: And the bacterial clearance (prednisone 15 mg daily, four days)?
Answer: does not increase bacterial clearance and may slow the rate of bacterial clearance
